One assay addresses T1, PPARγ-LBD (Homo sapiens, UniProt P37231).
T1 sequence (P37231 203-477 isoform P37231-2): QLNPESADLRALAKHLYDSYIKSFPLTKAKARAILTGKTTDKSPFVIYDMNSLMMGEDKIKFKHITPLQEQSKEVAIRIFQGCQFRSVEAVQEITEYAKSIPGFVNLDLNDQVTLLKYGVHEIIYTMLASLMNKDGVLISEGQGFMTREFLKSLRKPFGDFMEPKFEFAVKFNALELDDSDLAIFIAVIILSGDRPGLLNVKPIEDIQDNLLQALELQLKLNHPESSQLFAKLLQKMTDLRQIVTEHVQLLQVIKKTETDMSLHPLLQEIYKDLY
The experiment in a line: Thermal stability assay using circular dichroism spectroscopy. The conditions noted are these: CD at 222 nm, 10 µM LBD; for Effect on Tm of PPARγ-LBD (in words): GW1929 at 10 µM. The arrangement: PPARγ-LBD (amino acids 203–477 in isoform 1); His tag (pET28a) (N); made in house; host or cells: Rosetta (DE3) pLysS (E. coli). Format: binding. As to the method: (§1) PPARα/δ/γ-LBD proteins (10 µM) were incubated with different concentrations of ligands in buffer C consisting of 20 mM Tris-HCl (pH 8.0), 150 mM NaCl, 1 mM Tris 2-carboxyethylphosphine (TCEP)-HCl, and 10% glycerol. The circular dichroism (CD) spectra were monitored within a 200–260 nm range at increasing temperatures from 30 °C to 70 °C (2 °C/min) using a J-1500 spectropolarimeter equipped with a PTC-510 thermal controller (JASCO, Tokyo, Japan). […] The ligand-induced increases in the Tm values were defined as ∆Tm.
(§2) Nuclear receptors, including PPARs, display an increased thermal stability upon ligand binding, which is detectable through CD spectroscopy.
(§3) Figure 3 Circular dichroism-based PPARα/δ/γ-LBD thermal stability assay. […] Data are presented as the mean ± SE of three or four (in parentheses) independent experiments. Differences vs. basal levels (with 0.1% DMSO) were statistically assessed by one-way ANOVA, followed by a Dunnett’s post hoc test: * p < 0.05, ** p < 0.01, and *** p < 0.001.

Another assay addresses T2, PPARα-LBD (Homo sapiens, UniProt Q07869).
T2 sequence (Q07869 200-468): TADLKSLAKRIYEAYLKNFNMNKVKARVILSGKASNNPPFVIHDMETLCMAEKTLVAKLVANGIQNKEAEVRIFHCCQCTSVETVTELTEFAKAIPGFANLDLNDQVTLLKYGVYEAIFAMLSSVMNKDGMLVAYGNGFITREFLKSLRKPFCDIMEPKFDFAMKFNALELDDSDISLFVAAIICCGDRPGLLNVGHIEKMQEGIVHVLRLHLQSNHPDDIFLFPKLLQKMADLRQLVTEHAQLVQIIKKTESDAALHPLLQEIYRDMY
The assay is described as above. The arrangement: Human PPARα-LBD (amino acids 200–468); His tag (pET28a) (N); made in house; host or cells: Rosetta (DE3) pLysS (E. coli). In kind it is binding. The following applies: CD at 222 nm; 10 µM LBD; GW7647 at 10 µM. As to the method:
as §1, §2, §3

The next assay concerns the target T3, PPARδ-LBD (Homo sapiens, UniProt Q03181).
T3 sequence (Q03181 170-441): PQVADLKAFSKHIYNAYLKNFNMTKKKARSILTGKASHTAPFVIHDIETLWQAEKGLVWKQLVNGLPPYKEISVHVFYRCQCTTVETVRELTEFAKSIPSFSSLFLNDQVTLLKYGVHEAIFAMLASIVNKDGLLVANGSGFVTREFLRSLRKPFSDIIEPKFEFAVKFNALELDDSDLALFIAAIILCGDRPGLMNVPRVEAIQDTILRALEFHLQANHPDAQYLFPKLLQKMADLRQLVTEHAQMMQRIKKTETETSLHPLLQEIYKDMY
Put plainly: TR-FRET PGC1α coactivator recruitment assay. In kind it is biochemical. The following applies: for EC50: TR-FRET, PGC1α peptide, read-out: EC50, PGC1α recruitment to PPARδ-LBD. On the set-up: PPARδ-LBD (amino acids 170–441); made in house; host or cells: Rosetta (DE3) pLysS (E. coli). As to the method: Subsequently, 5 µL of 4 nM Eu-W1024-labeled anti-6×His antibody/80 nM ULight-Streptavidin (PerkinElmer) was added to each well, and the microplate was incubated in the dark for 2 h, at room temperature. […] The nonlinear fitting and the calculation of the EC50 were performed using the Prism 9 software (GraphPad, San Diego, CA, USA).
The ligand-bound activated forms of PPARs are stabilized by associations with specific coactivators, thereby enabling the regulation of specific gene expression.
Figure 2 TR-FRET-based LBD-mediated human PPARα/δ/γ coactivator recruitment assay. […] Data are presented as the mean ± SE of three or four independent experiments with duplicate samples, and the calculated EC50 values are shown.
(TR-FRET usually uses a lanthanide donor and a delayed reading to cut background.)

Some results are limits rather than exact numbers.

Take `CSc1ccc(C(=O)/C=C/c2cc(C)c(OC(C)(C)C(=O)O)c(C)c2)cc1` [elafibranor]: the “Effect on Tm of PPARγ-LBD (in words)” value on PPARγ-LBD is recorded as “did not significantly alter the Tm values”. In addition, the “Effect on Tm of PPARα-LBD (in words)” value at PPARα-LBD was “did not significantly alter the Tm values”.
A word on the EC50: it is the concentration that produces a half-maximal response. As to `O=C(O)CCCc1cc2cc(Cl)ccc2n1S(=O)(=O)c1ccc2ncsc2c1` [lanifibranor], the 50% effective concentration (EC50) at PPARδ-LBD was 3.86 µM. At PPARγ-LBD (100% = ∆Tm by 10 µM GW1929), the “Relative ∆Tm response, PPARγ-LBD (highest value)” value is on record as 61.4%. Also, the “Effect on Tm of PPARγ-LBD (in words)” value at PPARγ-LBD is “increased the Tm values”. Also, the “Effect on Tm of PPARα-LBD (in words)” value at PPARα-LBD is “increased the Tm values”.
As for `CCO[C@@H](Cc1ccc(OCCn2c(C)ccc2-c2ccc(SC)cc2)cc1)C(=O)O` [saroglitazar], the 50% effective concentration (EC50) at PPARδ-LBD was more than 100 µM. Also, the “Effect on Tm of PPARγ-LBD (in words)” value at PPARγ-LBD was “highly increased the Tm values”. Also, at PPARα-LBD, the “Effect on Tm of PPARα-LBD (in words)” value is listed as “highly increased the Tm values”.
`CCO[C@H](COc1ccc(C(F)(F)F)cc1)CSc1ccc(OCC(=O)O)c(C)c1` [seladelpar]: the “Efficacy, PGC1α recruitment to PPARδ-LBD” value at PPARδ-LBD (100% = 1 µM GW501516) came out at 124%. Moreover, the concentration giving a half-maximal response (EC50) at PPARδ-LBD was 0.0307 µM. Also, the “Effect on Tm of PPARγ-LBD (in words)” value at PPARγ-LBD is recorded as “increased the Tm values”. The “Effect on Tm of PPARα-LBD (in words)” value at PPARα-LBD was “increased the Tm values”.
